Results from patent publication US20230087609A1, “USE OF A SOLUBLE GUANYLATE CYCLASE (sGC) STIMULATOR OR OF A COMBINATION OF A sGC STIMULATOR AND AN sGC ACTIVATOR FOR CONDITIONS WHEREIN THE HEME GROUP OF sGC IS OXIDIZED OR WHEREIN sGC IS DEFICIENT IN HEME” (Universiteit Maastricht, priority 2020, published 2023).

Test system: isolated rat mesenteric arteries
Assay: Relaxation of isolated rat mesenteric arteries (myograph)
Description: The animals were killed humanely via CO2 inhalation (95% CO2, 5% O2) followed by cervical dislocation and exsanguination. The required tissues were dissected and placed in ice-cold oxygenated Krebs' solution (composition in mM: NaCl 119, KCl 4.7, MgSO4 1.17, NaHCO3 25, KH2PO4 1.18, CaCl2 2.5, glucose 5.5, EDTA 0.026, pH 7.4). The collected arteries were carefully freed of fat and connective tissue and cut into 2 mm rings.
The segments were then mounted in a small vessel myograph for the measurement of changes in isometric tension. Two 40 μm stainless steel wires were inserted through the lumen of the segment, one attached to an isometric force transducer and the other to a support driven by a micrometer. The vessels were maintained in Krebs' solution at 37° C. in 7 ml myograph chambers and were continuously bubbled with carbogen (95% O2, 5% CO2). Arteries were allowed to equilibrate for a 30 min period under zero force after which their internal diameter was normalised to an equivalent transmural pressure of 100 mmHg. Changes in isometric tension were reordered using a Myograph Interface Model 610 M version 2.2 (AD Instruments, Pty Ltd) and a chart recorder (Yokogawa, Japan), or using a MacLab® (MacLab® data-acquisition system, AD Instruments Pty Ltd.), interfaced with a Macintosh Computer. Following the 30 min equilibration period at optimal resting tension, the vessels were contracted maximally using a potassium depolarising KPSS solution (composition in mM: KCl 123, MgSO4 1.17, KH2PO4 2.37, CaCl2 2.5, glucose, 5.5 and EDTA 0.026). After the maximum contraction reached a plateau, the vessels were washed thoroughly using Krebs' solution and the tension allowed to return to the baseline. The vessels were then pre-contracted to ≈50% maximum contraction using titrated concentration of the thromboxane A2 mimetic U46619 (0.1-100 nM) and a titrated concentration of the al agonist cirazoline (1-100 nM). Subsequently, cumulative (0.5 log unit) concentration response curve to BAY 58-2667 (1 pM-0.1 μM) were constructed in the presence and absence of 100nM BAY 41-2272 (100 nM). All treatments used in our study including the pre-incubation with 10 μM ODQ for 30 min were added before the 50% pre-contraction with cirazoline and U46619 and only one concentration response curve to any vasodilator was constructed in each segment of the blood vessel. At the completion of each concentration response curve, maximal relaxation was achieved by adding nifedipine 10 μM.
Results are expressed as mean±s.e.m, with n representing the number of samples used from separate subjects. Statistical significance was accepted at the P<0.05 level. Relaxation responses to BAY58-2667 were expressed as a percentage reversal of the level of pre-contraction to U46619, with the response to nifedipine 10 μM defined as 100% relaxation. The individual response curves obtained for each vasodilator were fitted using non-linear regressions (Graphpad Prism®, version 5). In-vitro experiments have been performed with n=3 and n=1. Maximal relaxation values (%) at specific concentrations of the compounds were compared. For multiple comparisons, student's t-test or one-way analysis of variance (ANOVA) was followed by Bonferroni's test. • The results of our experiments are represented by the following non-limiting examples.

SMILES: Nc1nc(-c2nn(Cc3ccccc3F)c3ncccc23)ncc1C1CC1 [BAY 41-2272, 5-cyclopropyl-2-[1-(2-fluoro-benzyl)-1H-pyrazolo[3,4-b]pyridin-3-yl]-pyrimidin-4-ylamine]
- relaxation, compound alone (0.1 μM BAY 41-2272 alone, pre-contraction with U46619): no relaxation
- effect on Bay 58-2667 relaxation (nano-molar range): augmented
- effect on DEA/NO (NO donor) relaxation (nano-molar range): augmented
